{"source": "patent US20220017877A1", "about": "“BILIRUBIN OXIDASE ACTIVITY IMPROVING METHOD, AND BILIRUBIN OXIDASE PRODUCT” (OZEKI CORPORATION, priority 2018, published 2022)", "target": "T1, recombinant BOD (bilirubin oxidase) derived from Myrothecium verrucaria MT-1 (Albifimbria verrucaria, UniProt Q12737)", "T1 construct": "made in house; host or cells: Aspergillus sp", "T1 sequence (Q12737 39-572)": "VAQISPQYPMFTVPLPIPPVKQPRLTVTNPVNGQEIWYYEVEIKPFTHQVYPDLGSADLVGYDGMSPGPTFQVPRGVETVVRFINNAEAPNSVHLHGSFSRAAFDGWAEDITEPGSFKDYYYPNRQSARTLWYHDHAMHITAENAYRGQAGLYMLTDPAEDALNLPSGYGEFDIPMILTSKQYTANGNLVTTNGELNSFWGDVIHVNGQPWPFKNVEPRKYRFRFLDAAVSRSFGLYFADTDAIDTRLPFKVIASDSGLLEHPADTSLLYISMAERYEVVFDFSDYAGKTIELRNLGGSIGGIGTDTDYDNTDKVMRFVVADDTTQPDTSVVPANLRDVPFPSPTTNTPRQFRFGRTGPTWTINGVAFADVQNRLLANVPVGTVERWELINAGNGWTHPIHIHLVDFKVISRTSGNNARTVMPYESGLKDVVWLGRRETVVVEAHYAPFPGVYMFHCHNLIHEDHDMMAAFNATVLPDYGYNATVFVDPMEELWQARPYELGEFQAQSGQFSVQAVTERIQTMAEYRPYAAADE", "assay": "BOD activity after leaving the BOD solution with an activity improving agent at 5 to 50° C. in a deoxygenated atmosphere (Test Example 2)", "type": "biochemical", "settings": "for activity at 4000 µM / increase of BOD activity as compared with that prior to leaving: 4 mM", "source_text": "In Test Example 1, a BOD gene derived from a Myrothecium verrucaria MT-1 (GenBank accession number: D12579.1) was introduced into an Aspergillus sp., and then a recombinant BOD (hereinafter, also referred to simply as “BOD”) expressed in the Aspergillus sp. was purified by using a well-known technique and then used as the BOD. The BOD gene derived from the Myrothecium verrucaria MT-1 was codon-optimized in accordance with a gene sequence of the Aspergillus sp., and then introduced into the Aspergillus sp. Further, the BOD thus purified was dissolved in a 50 mM glycine-KOH (pH 8.5) buffer so that the concentration of the BOD became 1.0 mg/mL. Then, a resultant solution was used as a BOD enzyme solution.\nThe enzymatic activity of the BOD was measured as follows. To 1780 μL of a 50 mM potassium phosphate buffer (pH 6.5), 200 μL of a 20 mM ABTS substrate solution was added, so that a mixed solution (1980 μL) was prepared. This mixed solution was incubated for 1 min at 37° C. Thereafter, 20 μL of a solution containing the BOD (specifically, a BOD solution for evaluation, which will be described later) was added to the mixed solution, and a resultant mixed solution (2 mL) was incubated at 37° C. While the mixed solution was incubated, the absorbance of the mixed solution at a wavelength of 436 nm was measured immediately after that addition of the BOD solution for evaluation (at 0 seconds) and thereafter every 20 seconds. On the basis of (i) the absorbance of the mixed solution at a wavelength of 436 nm immediately after the addition of the BOD solution for evaluation and (ii) the absorbance of the mixed solution at a wavelength of 436 nm after a lapse of 1 minute from the addition of the BOD solution for evaluation, calculation was carried out for obtaining an increase rate per minute of the absorbance of the mixed solution at a wavelength of 436 nm after the addition of the BOD solution for evaluation. The BOD activity (unit) in the BOD solution for evaluation was calculated from the increase rate. In the present specification, the amount of enzyme for oxidizing 1 μmol of ABTS per minute was defined as one unit.\nThe following describes a specific test method in Test Example 2. A BOD solution containing an activity improving agent was prepared as in Test Example 1. Further, another BOD solution which contained no activity improving agent (to which no activity improving agent was added) was prepared and used as a control. In Test Example 2, L-ascorbic acid or uric acid was used as the activity improving agent. Moreover, the final concentration of L-ascorbic acid in the BOD solution was set to 4 mM, and the final concentration of uric acid in the BOD solution was set to 20 mM. In addition, in Test Example 2, the concentration of the BOD in the BOD enzyme solution was set to 3.0 mg/mL.\nEach of the above BOD solutions and a deoxygenating agent (Anaero Pack-Kenki manufactured by Mitsubishi Gas Chemical Company, Inc.) were included in one container (pouch) which was not permeable to oxygen. Then, the container was sealed, so that a BOD container was prepared. The BOD container was left at room temperature (approximately 25° C.) for approximately 2 hours, so that an inner atmosphere of the container became the deoxygenated atmosphere. Thereafter, the BOD container was left in a thermostatic chamber set at 5° C., 10° C., 20° C., 30° C., 40° C., or 50° C. for a certain period of time. Here, (a) the BOD solution without any additive was left for 1 day, 3 days, 7 days, 14 days, or 29 days, (b) the BOD solution containing L-ascorbic acid was left for 1 day, 3 days, 7 days, or 14 days, and (c) the BOD solution containing uric acid was left for 1 day, 3 days, 8 days, 14 days, or 28 days. Three samples (BOD containers) were prepared for each condition. After leaving the BOD containers under the above conditions, the BOD solution was collected from each of the BOD containers and used as a BOD solution for evaluation. […]", "note": "Like-named read-outs stand apart in the source and are kept apart here.", "data": [{"smiles": "O=C1O[C@H]([C@@H](O)CO)C(O)=C1O", "note": "[L-ascorbic acid]", "values": [{"measurement": "activity at 4000 µM", "setting": "5° C., Day 0, read-out: Activity (%) Day 0", "value": 100, "unit": "%"}, {"measurement": "activity at 4000 µM", "setting": "5° C., Day 1, read-out: Activity (%) Day 1", "value": 92, "unit": "%"}, {"measurement": "activity at 4000 µM", "setting": "5° C., Day 3, read-out: Activity (%) Day 3", "value": 95, "unit": "%"}, {"measurement": "activity at 4000 µM", "setting": "5° C., Day 7, read-out: Activity (%) Day 7", "value": 107, "unit": "%"}, {"measurement": "activity at 4000 µM", "setting": "5° C., Day 14, read-out: Activity (%) Day 14", "value": 55, "unit": "%"}, {"measurement": "activity at 4000 µM", "setting": "10° C., Day 0, read-out: Activity (%) Day 0", "value": 100, "unit": "%"}, {"measurement": "activity at 4000 µM", "setting": "10° C., Day 1, read-out: Activity (%) Day 1", "value": 101, "unit": "%"}, {"measurement": "activity at 4000 µM", "setting": "10° C., Day 3, read-out: Activity (%) Day 3", "value": 120, "unit": "%"}, {"measurement": "activity at 4000 µM", "setting": "10° C., Day 7, read-out: Activity (%) Day 7", "value": 146, "unit": "%"}, {"measurement": "activity at 4000 µM", "setting": "10° C., Day 14, read-out: Activity (%) Day 14", "value": 147, "unit": "%"}, {"measurement": "activity at 4000 µM", "setting": "20° C., Day 0, read-out: Activity (%) Day 0", "value": 100, "unit": "%"}, {"measurement": "activity at 4000 µM", "setting": "20° C., Day 1, read-out: Activity (%) Day 1", "value": 115, "unit": "%"}, {"measurement": "activity at 4000 µM", "setting": "20° C., Day 3, read-out: Activity (%) Day 3", "value": 160, "unit": "%"}, {"measurement": "activity at 4000 µM", "setting": "20° C., Day 7, read-out: Activity (%) Day 7", "value": 195, "unit": "%"}, {"measurement": "activity at 4000 µM", "setting": "20° C., Day 14, read-out: Activity (%) Day 14", "value": 188, "unit": "%"}, {"measurement": "activity at 4000 µM", "setting": "30° C., Day 0, read-out: Activity (%) Day 0", "value": 100, "unit": "%"}, {"measurement": "activity at 4000 µM", "setting": "30° C., Day 1, read-out: Activity (%) Day 1", "value": 164, "unit": "%"}, {"measurement": "activity at 4000 µM", "setting": "30° C., Day 3, read-out: Activity (%) Day 3", "value": 205, "unit": "%"}, {"measurement": "activity at 4000 µM", "setting": "30° C., Day 7, read-out: Activity (%) Day 7", "value": 204, "unit": "%"}, {"measurement": "activity at 4000 µM", "setting": "30° C., Day 14, read-out: Activity (%) Day 14", "value": 229, "unit": "%"}, {"measurement": "activity at 4000 µM", "setting": "40° C., Day 0, read-out: Activity (%) Day 0", "value": 100, "unit": "%"}, {"measurement": "activity at 4000 µM", "setting": "40° C., Day 1, read-out: Activity (%) Day 1", "value": 212, "unit": "%"}, {"measurement": "activity at 4000 µM", "setting": "40° C., Day 3, read-out: Activity (%) Day 3", "value": 216, "unit": "%"}, {"measurement": "activity at 4000 µM", "setting": "40° C., Day 7, read-out: Activity (%) Day 7", "value": 215, "unit": "%"}, {"measurement": "activity at 4000 µM", "setting": "40° C., Day 14, read-out: Activity (%) Day 14", "value": 237, "unit": "%"}, {"measurement": "activity at 4000 µM", "setting": "50° C., Day 0, read-out: Activity (%) Day 0", "value": 100, "unit": "%"}, {"measurement": "activity at 4000 µM", "setting": "50° C., Day 1, read-out: Activity (%) Day 1", "value": 220, "unit": "%"}, {"measurement": "activity at 4000 µM", "setting": "50° C., Day 3, read-out: Activity (%) Day 3", "value": 211, "unit": "%"}, {"measurement": "activity at 4000 µM", "setting": "50° C., Day 7, read-out: Activity (%) Day 7", "value": 212, "unit": "%"}, {"measurement": "activity at 4000 µM", "setting": "50° C., Day 14, read-out: Activity (%) Day 14", "value": 238, "unit": "%"}, {"measurement": "increase of BOD activity as compared with that prior to leaving", "setting": "one day at not lower than 40° C.", "value": "≥ 2", "unit": "times"}, {"measurement": "increase of BOD activity as compared with that prior to leaving", "setting": "seven days at 20° C.", "value": "≥ 2", "unit": "times"}, {"measurement": "increase of BOD activity as compared with that prior to leaving", "setting": "three days at 30° C.", "value": "≥ 2", "unit": "times"}, {"measurement": "BOD activity increase at 5° C. compared with not lower than 10° C.", "setting": "BOD containers left at 5° C.", "value": "not found to be increased to an extend that was achieved"}]}]}
